In brackets after ≈: the same amount, converted by molar mass. Where two headings read alike, the source gives them in different places.
Legend:
[1] = system: KRAS G12D-dependent Ba/F3 cells; assay: Ba/F3 proliferation assay, KRAS G12D; assay type: cell-based; settings: Mus musculus, BaF3, 72 h, AlamarBlue
Outline: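 Ba/F3 cells were retrovirally transduced with KRAS G12 mutant vectors, puromycin-selected (1 μg/mL) and grown without IL-3 to make them KRAS-dependent. Compounds were tested in technical duplicates, viability was read by AlamarBlue fluorescence, and values came from curve fitting.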

[2] = Metabolic (microsomal) stability assay, human liver microsomes (HLM); assay type: in vitro ADME; settings: predicted clearance as percent of liver blood flow, 1 μM
Outline: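 LC-MS/MS tracked parent disappearance at 0, 5, 15, 30 and 60 min in NADPH-initiated incubations with 1 mg/mL human microsomal protein and 1 μM compound at 37°C, pH 7.5. First-order fits gave intrinsic clearance, which was scaled up and reported as % QH. NADPH-free controls were also run.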

[3] = Solubility measurement (DMSO solution method), McIlvaine buffer pH 4.5 or 6.8; assay type: physicochemical; settings: aqueous buffer, kinetic from dmso stock, DMSO stock diluted to 250 μM, 24 h shaking at ambient temperature
Outline: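 DMSO stock diluted into McIlvaine buffer, pH 4.5 or 6.8, to 250 µM final, shaken 24 h at ambient temperature. Precipitate removed by filtration; filtrate quantified by LC-UV against a fully dissolved reference in acetonitrile/water 1:1.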

[4] = McIlvaine buffer pH 4.5, read-out: solubility pH 4.5
[5] = McIlvaine buffer pH 6.8, read-out: solubility pH 6.8

| Structure (SMILES) | IC50 [1] | HLM QH [2] | solubility at 24 h [3, 4] | solubility at 24 h [3, 5] |
| --- | --- | --- | --- | --- |
| C[C@H](Oc1cc(-c2cnn(C)n2)nc(-c2noc3c2CCC[C@@]32CCCc3sc(N)c(C#N)c32)n1)[C@@H]1C[C@@H](F)CN1C [II-28] | 90 nM | 51% | > 133 µg/mL | < 1 µg/mL |
| C[C@H]1CN(C)CCCN1c1nc(-c2onc3c2CCC[C@@]32CCCc3sc(N)c(C#N)c32)cc(N2CCN(C)C3(CC3)C2)n1 [I-42] | 440 nM | 42% | > 141 µg/mL | 99 µg/mL (≈ 161 µM) |
| C[C@H](Oc1cc(N2CCN(CCO)CC2)nc(-c2noc3c2CCC[C@@]32CCCc3sc(N)c(C#N)c32)n1)[C@@H]1CCCN1C [II-8] | 144 nM | <24% | > 141 µg/mL | > 132 µg/mL |
| C[C@H](Oc1nc(-c2noc3c2CCC[C@@]32CCCc3sc(N)c(C#N)c32)cc(N2C[C@H](C)N[C@@H](C)C2)n1)[C@@H]1CCCN1C [II-46] | 116 nM | 27% | > 150 µg/mL | > 150 µg/mL |
| C[C@H](Oc1cc(N2CC[C@@H](N(C)C)C2)nc(-c2noc3c2CCC[C@@]32CCCc3sc(N)c(C#N)c32)n1)[C@@H]1CCCN1C [II-47] | 40 nM | <24% | > 162 µg/mL | > 145 µg/mL |
| C[C@H](Oc1cc(N2C[C@@H](N(C)C)[C@@H](F)C2)nc(-c2noc3c2CCC[C@@]32CCCc3sc(N)c(C#N)c32)n1)[C@@H]1CCCN1C [II-11] | 85 nM | <24% | > 150 µg/mL | > 141 µg/mL |
| C[C@H](Oc1nc(-c2onc3c2CCC[C@@]32CCCc3sc(N)c(C#N)c32)cc(N2CCNC3(CC3)C2)n1)[C@@H]1CCCN1C [I-2] | 124 nM | 44% | > 142 µg/mL | > 131 µg/mL |
| C[C@H](Oc1cc(-c2ccc(N)nc2)nc(-c2onc3c2CCC[C@@]32CCCc3sc(N)c(C#N)c32)n1)[C@@H]1CCCN1C [I-25] | 261 nM | <24% | > 170 µg/mL | 44 µg/mL (≈ 75.5 µM) |
| C[C@@H]1CN(c2cc(O[C@@H](C)[C@@H]3CCCN3C)nc(-c3noc4c3CCC[C@@]43CCCc4sc(N)c(C#N)c43)n2)C[C@H](C)N1 [II-36] | 64 nM | <24% | > 146 µg/mL | > 140 µg/mL |
| C[C@H](O)Cn1ccc(-c2cc(O[C@@H](C)[C@@H]3CCCN3C)nc(-c3onc4c3CCC[C@@]43CCCc4sc(N)c(C#N)c43)n2)n1 [I-31] | 43 nM | <24% | > 128 µg/mL | 118 µg/mL (≈ 192 µM) |

Second part, the compound after the results:

| IC50 [1] | HLM QH [2] | solubility at 24 h [3, 4] | solubility at 24 h [3, 5] | Structure (SMILES) |
| --- | --- | --- | --- | --- |
| 25 nM | <24% | 124 µg/mL (≈ 189 µM) | 73 µg/mL (≈ 111 µM) | C[C@H](Oc1cc(-n2ccc(C(=O)NC3COC3)n2)nc(-c2noc3c2CCC[C@@]32CCCc3sc(N)c(C#N)c32)n1)[C@@H]1CCCN1C [II-25] |
| 14 nM | 45% | 100 µg/mL (≈ 179 µM) | 14 µg/mL (≈ 25.1 µM) | C[C@H](Oc1cc(-n2ccnn2)nc(-c2onc3c2CCC[C@@]32CCCc3sc(N)c(C#N)c32)n1)[C@@H]1CCCN1C [I-32] |
| 26 nM | <24% | > 138 µg/mL | > 130 µg/mL | C[C@H](Oc1cc(N2CCNC3(CCCC3)C2)nc(-c2noc3c2CCC[C@@]32CCCc3sc(N)c(C#N)c32)n1)[C@@H]1CCCN1C [II-41] |
| 34 nM | <24% | 121 µg/mL (≈ 189 µM) | 9 µg/mL (≈ 14 µM) | C[C@H](Oc1cc(-c2ccn(C[C@@H]3CCCO3)n2)nc(-c2noc3c2CCC[C@@]32CCCc3sc(N)c(C#N)c32)n1)[C@@H]1CCCN1C [II-43] |
| 39 nM | 63% | > 147 µg/mL | 20 µg/mL (≈ 31.6 µM) | C[C@@H]1CN(c2cc(O[C@@H](C)[C@@H]3C[C@@H](F)CN3C)nc(-c3noc4c3CCC[C@@]43CCCc4sc(N)c(C#N)c43)n2)CC2(CC2)N1 [II-17] |

Source: patent publication US20240174690A1, “ANNULATED 2-AMINO-3-CYANO THIOPHENES AND DERIVATIVES FOR THE TREATMENT OF CANCER” (BOEHRINGER INGELHEIM INTERNATIONAL GMBH, priority 2021, published 2024)
